Patent US20220193072A1, “METHODS OF TREATING BREAST CANCER WITH TETRAHYDRONAPHTHALENE DERIVATIVES AS ESTROGEN RECEPTOR DEGRADER” (Arvinas Operations, Inc., priority 2020, published 2022)
Where two headings read alike, the source gives them in different places.

Experiments:
[1] = 28-day oral toxicology study in dogs; format: in vivo; conditions: oral once daily 28 days
MCF7 cells = experiment: Live-cell imaging growth studies and EC50 for growth inhibition, MCF7; format: cell-based; conditions: Homo sapiens, read-out: Approximate Half-maximal Effective Concentration (EC50) for growth inhibition
Procedure: (§1) MCF7, T47D, T47D ESR1 Y537S or T47D ESR1 D538G cells were seeded at 2×10^5 density per well in 6-well tissue culture-treated plates in DMEM/F12/10% FBS (2 mL total volume). […] The plate was then placed in the Incucyte® S3 Live-Cell Analysis System and images were acquired every 4 hours for a total of 5 days (120 hours). Data were analyzed using the Incucyte® Software v2020C which quantified cell surface area coverage as confluence values. Relative growth was calculated for all timepoints for all growth conditions relative to the confluence value observed for the control at 120 hours. Graphing and statistical analyses were performed using Graphpad Prism (GraphPad Software).

ERα (ESR1 Y537S) = target: T1, ERα (ESR1 Y537S) (Homo sapiens, UniProt P03372, Y537S); experiment: Tumor ERα levels in ESR1 (Y537S) PDX model; format: in vivo; conditions: for reduction of tumor ERα levels: ESR1 (Y537S) PDX, 28 days
T1 construct: a hormone-independent patient-derived xenograft model; from tissue; host or cells: ESR1 (Y537S) patient-derived xenograft tumour grown in mice
T1 sequence (P03372 1-595 Y537S): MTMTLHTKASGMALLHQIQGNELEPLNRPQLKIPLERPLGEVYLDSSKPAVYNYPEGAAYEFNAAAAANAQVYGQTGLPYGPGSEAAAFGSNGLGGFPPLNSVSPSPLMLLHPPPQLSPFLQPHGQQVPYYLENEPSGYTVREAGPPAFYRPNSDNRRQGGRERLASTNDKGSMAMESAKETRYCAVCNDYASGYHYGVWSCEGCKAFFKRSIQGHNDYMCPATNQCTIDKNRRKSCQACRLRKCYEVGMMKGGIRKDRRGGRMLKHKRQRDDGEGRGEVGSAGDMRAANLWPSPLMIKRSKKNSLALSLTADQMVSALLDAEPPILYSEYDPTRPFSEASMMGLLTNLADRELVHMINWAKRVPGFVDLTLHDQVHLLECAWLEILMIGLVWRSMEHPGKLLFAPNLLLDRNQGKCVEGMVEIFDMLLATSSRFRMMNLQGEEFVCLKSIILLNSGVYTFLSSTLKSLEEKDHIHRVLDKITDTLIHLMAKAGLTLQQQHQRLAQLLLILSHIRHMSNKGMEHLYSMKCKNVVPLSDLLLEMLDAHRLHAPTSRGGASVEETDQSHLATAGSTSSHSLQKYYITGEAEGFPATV

T47D ESR1 D538G cells = experiment: Live-cell imaging growth studies and EC50 for growth inhibition, T47D ESR1 D538G; format: cell-based; conditions: Homo sapiens; T47D ESR1 D537G (so in the source); read-out: Approximate Half-maximal Effective Concentration (EC50) for growth inhibition
Procedure: as §1

[2] = 28-day oral toxicology study in rats; format: in vivo; conditions: oral once daily 28 days
[3] = test system: ESR1 variants Y537S and D538G; experiment: In vitro ERα degradation in ESR1 variant cell lines; format: cell-based, human; conditions: FIG. 15
rat uterine ER = target: T2, rat uterine ER (Rattus norvegicus, UniProt P06211); experiment: Immature rat uterotrophic model; format: in vivo
T2 construct: from tissue; host or cells: uterus of immature rats
T2 sequence (P06211 1-600): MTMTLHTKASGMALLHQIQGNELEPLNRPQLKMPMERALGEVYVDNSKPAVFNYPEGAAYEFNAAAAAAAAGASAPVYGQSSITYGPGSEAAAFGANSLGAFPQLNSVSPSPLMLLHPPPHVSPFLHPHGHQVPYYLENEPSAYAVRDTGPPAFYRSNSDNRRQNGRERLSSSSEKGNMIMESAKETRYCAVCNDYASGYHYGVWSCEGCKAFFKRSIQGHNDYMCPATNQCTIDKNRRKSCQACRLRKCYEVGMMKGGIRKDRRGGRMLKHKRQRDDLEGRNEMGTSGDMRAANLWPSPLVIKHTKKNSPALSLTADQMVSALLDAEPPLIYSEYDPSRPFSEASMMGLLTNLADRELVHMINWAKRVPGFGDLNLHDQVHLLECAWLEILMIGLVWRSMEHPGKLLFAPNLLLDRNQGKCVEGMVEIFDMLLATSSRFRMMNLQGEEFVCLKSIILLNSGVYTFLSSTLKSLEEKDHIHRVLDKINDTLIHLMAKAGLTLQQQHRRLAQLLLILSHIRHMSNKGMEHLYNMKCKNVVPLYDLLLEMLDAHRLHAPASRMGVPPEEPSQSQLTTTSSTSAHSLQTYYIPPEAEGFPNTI

[4] = Preclinical pharmacokinetics, oral once daily; conditions: in vivo, total drug concentrations; for AUC(0-t): read-out: Mean AUC0-24
Source text: The pharmacokinetic results are shown below in Table 1.

ER-dependent cell lines = experiment: Cell proliferation of ER-dependent cell lines; format: cell-based
[5] = Phase I clinical trial pharmacokinetics; conditions: human, in vivo, po, 30 mg, 30 mg oral once daily
Source text: A Phase I Clinical Trial with Compound (I-c) was undertaken. A traditional 3+3 dose escalation design was implemented. […] Dose increases were dependent on toxicities.
The key entry criteria for this trial were: ER+/HER2− advanced breast cancer; at least two prior endocrine therapies in any setting, and a CDK4/6 inhibitor; and up to three prior cytotoxic chemotherapy regimens.
The initial pharmacokinetic results are shown below in Table 2, as well as in FIG. 3 and FIG. 4.

In the case of `O=C1CC[C@H](N2Cc3cc(N4CCN(CC5CCN(c6ccc([C@@H]7c8ccc(O)cc8CC[C@@H]7c7ccccc7)cc6)CC5)CC4)ccc3C2=O)C(=O)N1` [Compound (I-c), (3S)-3-[5-[4-[[1-[4-[(1R,2S)-6-hydroxy-2-phenyl-tetralin-1-yl]phenyl]-4-piperidyl]methyl]piperazin-1-yl]-1-oxo-isoindolin-2-yl]piperidine-2,6-dione], the “clinical signs of toxicity” value ([1]; doses up to 90 mg/kg/day) is reported as “no clinical signs of toxicity”, the “effects on overall animal health or well-being” value ([1]; up to 90 mg/kg/day) is reported as “no effects on the overall animal health or well-being” and the EC50 (MCF7 cells) is reported as 10 nM. The “reduction of tumor ERα levels” value (ERα (ESR1 Y537S); 10 mg/kg oral once daily) was 79%, the “reduction of tumor ERα levels” value (ERα (ESR1 Y537S); 30 mg/kg oral once daily) was 88% and the “mutant ER protein levels” value (ERα (ESR1 Y537S); ESR1 Y537S PDX, 10 mg/kg) was “significantly reduced”. The EC50 (T47D ESR1 D538G cells) was 10 nM, the “clinical signs of toxicity” value ([2]; doses up to 100 mg/kg/day) was “no clinical signs of toxicity” and the “effects on overall animal health or well-being” value ([2]; up to 100 mg/kg/day) was “no effects on the overall animal health or well-being”. For the same compound, the “degradation of clinically-relevant ESR1 variants Y537S and D538G” value [3] was “degrades”, the “degradation of rat uterine ER” value (rat uterine ER) was “degrades” and the “agonist activity (uterine weight)” value (rat uterine ER; FIG. 17: 30 mg/kg once a day oral) was “no agonist activity”. The Cmax ([4]; 3 mg/kg oral once daily) was 84 ng/mL, the AUC(0-t) ([4]; 3 mg/kg oral once daily) was 658 ng·h/mL and the Cmax ([4]; 10 mg/kg oral once daily) was 312 ng/mL. It also gave an AUC(0-t) ([4]; 10 mg/kg oral once daily) of 2540 ng·h/mL, a Cmax ([4]; 30 mg/kg oral, single dose) of 962 ng/mL and an AUC(0-t) ([4]; 30 mg/kg oral, single dose) of 5720 ng·h/mL. The “cell proliferation of ER-dependent cell lines” value (ER-dependent cell lines) was “inhibits”, the AUC ([5]; Phase I, read-out: Mean Day 1 AUCTAU) was 1690 ng·h/mL and the Cmax ([5]; Phase I, read-out: Mean Day 1 Cmax) was 109 ng/mL. The Cmax ([5]; Phase I, read-out: Mean Day 15 Cmax) was 224 ng/mL and the AUC ([5]; calculated using imputed 24 hour values, read-out: Mean Day 15 AUCTAU) was 4100 ng·h/mL.
